Test results taken from patent EP0081924A1, “Topical compostions for lowering intraocular pressure” (ALCON LABORATORIES, INC., priority 1981, dated 1983).
Where a name gives a salt, the structure may show the parent alone. Read-outs that look alike come from different tables or passages of the source.

What was measured:
Intraocular Pressure [1] = experiment: Normal Rabbit Model, IOP lowering after topical administration; format: in vivo, New Zealand albino rabbits; details: Oryctolagus cuniculus, read-out: (B) 50uL 1% topical Normal Rabbit %IOP
Procedure: To determine the IOP reduction efficacy of the anti-glaucoma drugs of the invention in normal albino rabbits the following was done.
New Zealand albino rabbits (12) were acclimatized in restraining boxes for thirty minutes. Alcaine/ saline (1:5) was applied to the rabbit eyes and baseline IOP in mm Hg pressure were measured using an Alcon Laboratory Applanation Phneumatonograph. Then thirty minutes later, the coded test substance versus a coded saline control was administered as a 50 ul drop to one eye, six animals in each group. The treatment effects were measured as a function of time. Mean IOP and mean change in IOP for each hourly reading was recorded.
The effect cited is a peak percentage effect versus the external control test group.

Intraocular Pressure [2] = experiment: Rhesus Monkey - Laser Model, IOP lowering after topical administration; format: in vivo, Rhesus monkeys; details: laser-induced ocular hypertension, peak effect, percentage change in the hypertensioned eye versus the same eye at the same hour the previous day
Procedure: A. Rhesus Monkey - Laser Model
Ocular hypertension was produced in adult Rhesus monkeys (4) via an argon laser photocoagulation of trabecular meshwork in the eye. The treated eye (only one is lasered) was allowed to heal and the IOP stabilized after about six weeks. Tests were performed by topical administration of one drop of a 0.5% solution of-the test agent to the Ketamine anesthetized Rhesus monkey's eye. The IOP charge was recorded by an Alcon Applanation Phneumatonograph. The peak effect was recorded as a percentage change in the hypertensioned eye versus the IOP value of the same eye recorded at the same hour the previous day.

[3] = 50uL 1% topical to one eye, peak percentage effect versus the external (saline) control group

Structure (SMILES)	change in vivo at 1 % (Intraocular Pressure [1]; [3]) [%]	(A) 50uL 0.5% topical Laser-Monkey %IOP (Intraocular Pressure [2]) [%]	change in vivo at 1 % (Intraocular Pressure [1]; topical) [%]
Clc1cccc(Cl)c1N=C1NCCN1 [2,6-Dichloro-N-2-imidazolidinylidene-benezamine, reference compound]	-13.9	-32.0	–
Cl.Cl.Nc1cc(Cl)c(N=C2NCCN2)c(Cl)c1 [2,6-Dichloro-N^1-(2-imidazolidinylidene)-1,4-benzenediamine Dihydrochloride]	-1.3	-21.0	–
CC(=O)Nc1cc(Cl)c(N=C2NCCN2)c(Cl)c1.Cl [N-[3,5-Dichloro-4-(2-imidazolidinylideneamino)-phenyl]-acetamide Hydrochloride]	-19	-4.0	–
Cl.Oc1cc(Cl)c(N=C2NCCN2)c(Cl)c1 [3,5-Dichloro-4-(2-imidazolidinylideneamino)-phenol Hydrochloride]	–	-23.0	-7.4
OCc1cc(Cl)c(N=C2NCCN2)c(Cl)c1 [3.5-Dichloro-4-(2-imidazolidinylideneamino)-benzenemethanol]	0	-17	–
CCOC(=O)c1cc(Cl)c(N=C2NCCN2)c(Cl)c1 [3,5-Dichloro-4-(2-imidazolidinylideneamino)-benzoic acid ethyl ester]	-5.6	–	–
CN(C)c1cc(Cl)c(N=C2NCCN2)c(Cl)c1 [2,6-Dichloro-N^1-(2-imidazolidinylidene)-N^4, N^4-dimethyl-1,4-benzenediamine Dihydrochloride]	–	–	-10.2
N#Cc1cc(Cl)c(N=C2NCCN2)c(Cl)c1 [4-Cyano-2,6-dichloro-N-(2-imidazolidinylidene)-benzamine Hydrochloride]	-2.3	–	–
Nc1ccc(Cl)c(N=C2NCCN2)c1Cl [2,6-Dichloro-N^1-(2-imidazolidinylidene)-1,3-benzenediamine hydrochloride]	–	–	0
O=CNc1cc(Cl)c(N=C2NCCN2)c(Cl)c1 [N-[3,5-Dichloro-4-(2-imidazolidinylideneamino) -phenyl]-formamide Free Base]	-15.6	-26.0	–
O=C(O)c1cc(Cl)c(N=C2NCCN2)c(Cl)c1 [3,5-Dichloro-4-(2-imidazolidinylideneamino)-benzoic acid]	-4.5	–	–
